For 14 molecules, TGI and GI50 results are on record in PubChem BioAssay (NCI).

Structures are written as SMILES.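 Assay format: 96-well plates, 48-hour exposure. Here, GI50 denotes the concentration required for 50% inhibition of growth. TGI: total growth inhibition.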

Test systems include TK-10 renal; HOP-92 NSCLC; LOX IMVI melanoma; MCF7 breast; IGROV1 ovarian; HT29 colon; SK-MEL-5 melanoma; A498 renal; EKVX NSCLC; SK-MEL-2 melanoma.
What all share (test): inhibition of tumour cell growth, NCI panel, 48 h

In the case of `CC(=O)O[C@H]1CC[C@@]2(C)C(=CC[C@@H]3[C@@H]2CC[C@]2(C)c4nc(Cl)ccc4C[C@@H]32)C1`, the TGI in the assay with TK-10 renal is over 100 µM; in the assay on HOP-92 NSCLC it was over 100 µM; in the assay with LOX IMVI melanoma, over 100 µM; in the assay with MCF7 breast it was 62.3 µM; in the assay on IGROV1 ovarian it was over 100 µM; in the assay on HT29 colon, over 100 µM. For the same molecule, the TGI in the assay with SK-MEL-5 melanoma is 96.6 µM; with A498 renal, over 100 µM; in the assay with EKVX NSCLC it was over 100 µM.
Take `COC(=O)C(=O)Cc1nc2ccccc2o1`: the TGI in the assay on TK-10 renal, with SK-MEL-2 melanoma, in the assay with LOX IMVI melanoma, in the assay on HT29 colon, with A498 renal and in the assay on EKVX NSCLC was over 100 µM each time.
For `CCN(CC)C1Oc2cc3c(cc2C(c2cccc(OC)c2OC)C1C)OCO3` (centres undefined), the TGI in the assay with TK-10 renal was found to be 46.3 µM; with SK-MEL-2 melanoma it was 30.2 µM; in the assay on LOX IMVI melanoma it was 21.6 µM; in the assay with MCF7 breast, 60.8 µM; with IGROV1 ovarian, 29.3 µM; with HT29 colon, 24.8 µM. Further, the figures for the TGI in the assay with SK-MEL-5 melanoma, in the assay on A498 renal and with EKVX NSCLC were 21.3 µM, 23.3 µM and 52.3 µM, respectively.
Turning to `Nc1nc2c(C(=O)O)c3ccc([N+](=O)[O-])cc3c(=O)n2c2ccccc12`, the TGI in the assay on SK-MEL-2 melanoma was 79.1 µM; in the assay on LOX IMVI melanoma, 32.2 µM; with MCF7 breast, 49.1 µM; in the assay with IGROV1 ovarian it was 86.6 µM; in the assay on HT29 colon, over 100 µM; in the assay with SK-MEL-5 melanoma, over 100 µM. Further, the TGI with A498 renal and with EKVX NSCLC was over 100 µM each time.
As to `COc1cc(Nc2nc3cc(C(F)(F)F)ccc3n3cccc23)cc(OC)c1OC`, the TGI with TK-10 renal, in the assay with HOP-92 NSCLC, in the assay with SK-MEL-2 melanoma, in the assay on MCF7 breast, with IGROV1 ovarian and in the assay with SK-MEL-5 melanoma was over 100 µM in each case. The TGI in the assay with A498 renal and with EKVX NSCLC was over 100 µM throughout.
As to `COC(=O)Cc1c(-c2c(CC(=O)OC)c3ccccc3n2C2OC(COC(C)=O)C(OC(C)=O)C(OC(C)=O)C2OC(C)=O)[nH]c2ccccc12` (centres undefined), the TGI in the assay with TK-10 renal, in the assay on HOP-92 NSCLC, in the assay on SK-MEL-2 melanoma, in the assay with IGROV1 ovarian, with HT29 colon and with SK-MEL-5 melanoma was over 100 µM throughout. The TGI in the assay on A498 renal and with EKVX NSCLC was over 100 µM in each case.
Turning to `CCOC(=O)C1CCCCN1C(=O)Cc1c[nH]c2ccccc12` (centres undefined), the TGI in the assay with TK-10 renal, in the assay on HOP-92 NSCLC, with SK-MEL-2 melanoma, in the assay with LOX IMVI melanoma, in the assay with MCF7 breast and with IGROV1 ovarian was over 100 µM in each case. Also, the TGI in the assay with HT29 colon, in the assay with A498 renal and with EKVX NSCLC was over 100 µM throughout.
In the case of `O=NN(CCF)C(=O)NC1CCSCC1`, the TGI in the assay with HOP-92 NSCLC, with SK-MEL-2 melanoma, in the assay with LOX IMVI melanoma, with MCF7 breast, in the assay with IGROV1 ovarian and with HT29 colon was over 100 µM each time. Moreover, the TGI in the assay on SK-MEL-5 melanoma and in the assay on A498 renal was over 100 µM throughout.
With `CN=C(Nc1cccc(C(F)(F)F)c1)SCc1ccc(N=C=S)cc1`, the TGI in the assay on TK-10 renal was 23.5 µM; in the assay with HOP-92 NSCLC, 30.5 µM; in the assay on SK-MEL-2 melanoma it was 25.6 µM; in the assay with LOX IMVI melanoma, 18.4 µM; with IGROV1 ovarian, 32.8 µM; in the assay on HT29 colon it was 31.2 µM. The figures for the TGI in the assay with SK-MEL-5 melanoma, in the assay on A498 renal and in the assay on EKVX NSCLC were 30.1 µM, 34.6 µM and 45.1 µM, respectively.
Take `COc1cc(CNc2nc3ccccc3nc2C(=O)O)cc(OC)c1OC`: the TGI in the assay with TK-10 renal, in the assay with HOP-92 NSCLC, with LOX IMVI melanoma, in the assay with MCF7 breast, in the assay on IGROV1 ovarian and in the assay on HT29 colon was over 100 µM each time. The TGI with SK-MEL-5 melanoma, with A498 renal and in the assay with EKVX NSCLC was over 100 µM throughout.
Consider `CC[C@@]1(O)C(=O)OCc2c1cc1n(c2=O)Cc2c-1nc1ccccc1c2/C=N\NC(=O)C(N)CCSC` (some centres undefined), for which the TGI is over 100 µM in the assay with TK-10 renal; 2.98 µM with HOP-92 NSCLC; 4.2 µM with SK-MEL-2 melanoma; 0.0368 µM in the assay on LOX IMVI melanoma; 1.84 µM with MCF7 breast; 5.63 µM with IGROV1 ovarian. For the same molecule, the TGI in the assay with SK-MEL-5 melanoma was 0.191 µM; in the assay on A498 renal, 0.359 µM; in the assay on EKVX NSCLC, over 100 µM.
For the molecule `Cn1c(=O)n2n(c1=O)C(C)(C13CC4CC(CC(C4)C1)C3)C13CC4CC(CC1C4)CC23` (centres undefined), the TGI in the assay on TK-10 renal, with HOP-92 NSCLC, in the assay with SK-MEL-2 melanoma, with MCF7 breast, with IGROV1 ovarian and in the assay on HT29 colon was over 100 µM each time. Further, the TGI in the assay on SK-MEL-5 melanoma, in the assay on A498 renal and with EKVX NSCLC was over 100 µM each time.
For `COc1ccc(Nc2ccc([N+](=O)[O-])cc2[N+](=O)[O-])cc1CN(CCCl)CCCl`, the GI50 with TK-10 renal is 3.76 µM; in the assay with HOP-92 NSCLC, 1.99 µM; in the assay with SK-MEL-2 melanoma, 2.28 µM; in the assay on LOX IMVI melanoma, 1.37 µM; with MCF7 breast, 1.49 µM; in the assay on HT29 colon, 2.44 µM. Moreover, the GI50 in the assay with A498 renal is 1.88 µM. Besides, the TGI stood at 95.3 µM with TK-10 renal; 5.47 µM with HOP-92 NSCLC; 5.66 µM with SK-MEL-2 melanoma; 3.51 µM in the assay with LOX IMVI melanoma; 13.3 µM with MCF7 breast; 9.59 µM in the assay on HT29 colon. The TGI in the assay with A498 renal turned out to be 4.94 µM.
In the case of `c1ccc(CC2COC(c3cccs3)=N2)cc1` (centres undefined), the TGI in the assay on TK-10 renal is over 100 µM; in the assay on HOP-92 NSCLC, over 100 µM; in the assay with SK-MEL-2 melanoma it was over 100 µM; in the assay on LOX IMVI melanoma, over 100 µM; with MCF7 breast, over 31.6 µM; in the assay with IGROV1 ovarian, over 100 µM. Also, the TGI with HT29 colon, in the assay on SK-MEL-5 melanoma and with EKVX NSCLC was over 100 µM throughout.
